Source: patent US9877956B2, “Antiviral compounds and methods of use thereof” (Trana Discovery, Inc., priority 2014, dated 2018)
≈ marks a conversion by molar mass, not a printed value. Where “and” joins values, the source holds several entries; their conditions need not be identical. Equal entries are not always repeated.

Legend:
Type in all cases: cell-based
[1] = Toxicity in PBMC (Cell Titer 96); settings: human, peripheral blood mononuclear cells (PBMC); PBMC, Cell Titer 96
Description: (§1) These compounds were further screened for activity in HIV-1-infected peripheral blood mononuclear cells (PBMC). The data (experiments were repeated, so duplicates are shown) is summarized in the tables below, and also in FIGS. 4A-B and 5A-B.

[2] = system: PBMC; experiment: Toxicity in PBMC (Cell Titer 96); settings: for % CC: O.D. relative to cell control; for TOXICITY VALUES (Cell Titer 96 - O.D. @ 490/650 nm), SAMPLE: individual samples
Description: as §1

[3] = system: HIV-1 92/HT/599; experiment: HIV-1 92/HT/599 replication in human PBMCs, reverse transcriptase in culture supernatants (RLU); settings: for RLU (Relative Light Units), SAMPLE: individual samples, listed as Trana 154
Experimental: (§2) In these studies, PHA-P stimulated PBMCs from three donors were pooled together and re-suspended in fresh tissue culture medium at 1×10^6 cells/mL and plated in the interior wells of a 96 well round bottom microplate at 50µl/well. A 100µL volume of 9 concentrations of compound serially diluted were transferred to the round-bottom 96 well plate containing the cells in triplicate. Fifty microliters (µL) of HIV-1 at a pre-determined dilution was added. Each plate contained cell control wells and virus control wells in parallel with the experimental wells. After 7 days in culture, efficacy was evaluated by measuring the reverse transcriptase in the culture supernatants and the cells were stained with the tetrazolium dye XTT to evaluate cytotoxicity.

[4] = system: HUMAN PBMCS; experiment: Cytotoxicity in human PBMCs (XTT); settings: for TOXICITY VALUES (XTT - O.D. @ 450/650 nm), SAMPLE: individual samples, listed as Trana 154
Experimental: as §2

[5] = system: HIV-1/Ba-L; experiment: Inhibition of HIV-1 Ba-L replication in PBMC (RT values); settings: for % VC: RT relative to virus control; for RT Values (cpm), SAMPLE: individual samples
Experimental: as §1
The HIV strain was HIV-1/Ba-L. The titer was 0.1 μL/well.

c1ccc(N/N=C2/CCc3ccccc3N2)cc1 [HIT #154]
CC50 [1]: > 100 µM | TOXICITY VALUES (Cell Titer 96 - O.D. @ 490/650 nm), MEAN ([2]; 0.01 μM): 0.990 O.D. | % CC ([2]; 0.01 μM): 119.6% | TOXICITY VALUES (Cell Titer 96 - O.D. @ 490/650 nm), SAMPLE ([2]; 0.01 μM): 1.163 O.D. and 1.007 O.D. and 0.800 O.D. | TOXICITY VALUES (Cell Titer 96 - O.D. @ 490/650 nm), MEAN ([2]; 0.03 μM): 0.810 O.D. | % CC ([2]; 0.03 μM): 97.9% | TOXICITY VALUES (Cell Titer 96 - O.D. @ 490/650 nm), SAMPLE ([2]; 0.03 μM): 0.746 O.D. and 0.831 O.D. and 0.853 O.D. | TOXICITY VALUES (Cell Titer 96 - O.D. @ 490/650 nm), MEAN ([2]; 0.10 μM): 0.966 O.D. | % CC ([2]; 0.10 μM): 116.8% | TOXICITY VALUES (Cell Titer 96 - O.D. @ 490/650 nm), SAMPLE ([2]; 0.10 μM): 1.086 O.D. and 0.970 O.D. and 0.843 O.D. | TOXICITY VALUES (Cell Titer 96 - O.D. @ 490/650 nm), MEAN ([2]; 0.32 μM): 0.937 O.D. | % CC ([2]; 0.32 μM): 113.3% | TOXICITY VALUES (Cell Titer 96 - O.D. @ 490/650 nm), SAMPLE ([2]; 0.32 μM): 0.736 O.D. and 1.231 O.D. and 0.845 O.D. | TOXICITY VALUES (Cell Titer 96 - O.D. @ 490/650 nm), MEAN ([2]; 1.00 μM): 1.077 O.D. | % CC ([2]; 1.00 μM): 130.2% | TOXICITY VALUES (Cell Titer 96 - O.D. @ 490/650 nm), SAMPLE ([2]; 1.00 μM): 1.296 O.D. and 1.045 O.D. and 0.892 O.D. | TOXICITY VALUES (Cell Titer 96 - O.D. @ 490/650 nm), MEAN ([2]; 3.16 μM): 0.964 O.D. | % CC ([2]; 3.16 μM): 116.5% | TOXICITY VALUES (Cell Titer 96 - O.D. @ 490/650 nm), SAMPLE ([2]; 3.16 μM): 1.146 O.D. and 0.903 O.D. and 0.843 O.D. | TOXICITY VALUES (Cell Titer 96 - O.D. @ 490/650 nm), MEAN ([2]; 10.0 μM): 0.937 O.D. | % CC ([2]; 10.0 μM): 113.2% | TOXICITY VALUES (Cell Titer 96 - O.D. @ 490/650 nm), SAMPLE ([2]; 10.0 μM): 0.712 O.D. and 1.254 O.D. and 0.846 O.D. | TOXICITY VALUES (Cell Titer 96 - O.D. @ 490/650 nm), MEAN ([2]; 31.6 μM): 0.962 O.D. | % CC ([2]; 31.6 μM): 116.3% | TOXICITY VALUES (Cell Titer 96 - O.D. @ 490/650 nm), SAMPLE ([2]; 31.6 μM): 0.898 O.D. and 1.018 O.D. and 0.970 O.D. | TOXICITY VALUES (Cell Titer 96 - O.D. @ 490/650 nm), MEAN ([2]; 100 μM): 0.769 O.D. | % CC ([2]; 100 μM): 92.9% | TOXICITY VALUES (Cell Titer 96 - O.D. @ 490/650 nm), SAMPLE ([2]; 100 μM): 0.757 O.D. and 0.854 O.D. and 0.697 O.D. | TC 90% ([2]; PBMC, Cell Titer 96): >100 µM | TC 95% ([2]; PBMC, Cell Titer 96): >100 µM | % Virus Control ([3]; 0.32 μg/ml): 84.00% | Antiviral Test Values Mean RLU ([3]; 0.32 μg/ml): 16201.3 RLU | RLU (Relative Light Units), SAMPLE ([3]; 0.32 μg/ml): 27495.0 RLU and 14218.0 RLU and 6891.0 RLU | % Virus Control ([3]; 1 μg/ml): 78.40% | Antiviral Test Values Mean RLU ([3]; 1 μg/ml): 15121.3 RLU | RLU (Relative Light Units), SAMPLE ([3]; 1 μg/ml): 10410.0 RLU and 21914.0 RLU and 13031.0 RLU | % Virus Control ([3]; 3.16 μg/ml): 41.46% | Antiviral Test Values Mean RLU ([3]; 3.16 μg/ml): 7996.7 RLU | RLU (Relative Light Units), SAMPLE ([3]; 3.16 μg/ml): 11407.0 RLU and 10934.0 RLU and 1649.0 RLU | % Virus Control ([3]; 9.99 μg/ml): 48.92% | Antiviral Test Values Mean RLU ([3]; 9.99 μg/ml): 9436.3 RLU | RLU (Relative Light Units), SAMPLE ([3]; 9.99 μg/ml): 13230.0 RLU and 13148.0 RLU and 1933.0 RLU | % Virus Control ([3]; 31.6 μg/ml): 35.47% | Antiviral Test Values Mean RLU ([3]; 31.6 μg/ml): 6841.0 RLU | RLU (Relative Light Units), SAMPLE ([3]; 31.6 μg/ml): 5800.0 RLU and 7652.0 RLU and 7462.0 RLU | % Virus Control ([3]; 100 μg/ml): 6.75% | Antiviral Test Values Mean RLU ([3]; 100 μg/ml): 1301.3 RLU | RLU (Relative Light Units), SAMPLE ([3]; 100 μg/ml): 1021.0 RLU and 744.0 RLU and 2139.0 RLU | EC 25% ([3]; HIV-1 92/HT/599, human PBMCs): 1.11 µg/mL (≈ 4.68 µM) | EC 95% ([3]; HIV-1 92/HT/599, human PBMCs): >100 µg/mL | EC50 ([3]; Human immunodeficiency virus 1, PBMC, read-out: EC50 (EC 50%), HIV-1 92/HT/599, human PBMCs): 2.42 µg/mL (≈ 10.2 µM) | Therapeutic Index (TI) 25% ([3]; TC/EC at 25%): 20.09 | Therapeutic Index (TI) 50% ([3]; TC/EC at 50%): 33.76 | Therapeutic Index (TI) 95% ([3]; TC/EC at 95%): 1 | % Cell Viability ([4]; 0.32 μg/ml): 92.64% | Cytotoxicity Test Values Mean OD @ 450/650 nm ([4]; 0.32 μg/ml): 1.038 OD | TOXICITY VALUES (XTT - O.D. @ 450/650 nm), SAMPLE ([4]; 0.32 μg/ml): 0.9729 O.D. and 1.0510 O.D. and 1.0896 O.D. | % Cell Viability ([4]; 1 μg/ml): 87.74% | Cytotoxicity Test Values Mean OD @ 450/650 nm ([4]; 1 μg/ml): 0.983 OD | TOXICITY VALUES (XTT - O.D. @ 450/650 nm), SAMPLE ([4]; 1 μg/ml): 0.9683 O.D. and 1.0187 O.D. and 0.9670 O.D. | % Cell Viability ([4]; 3.16 μg/ml): 88.82% | Cytotoxicity Test Values Mean OD @ 450/650 nm ([4]; 3.16 μg/ml): 0.995 OD | TOXICITY VALUES (XTT - O.D. @ 450/650 nm), SAMPLE ([4]; 3.16 μg/ml): 0.9103 O.D. and 1.0889 O.D. and 0.9881 O.D. | % Cell Viability ([4]; 9.99 μg/ml): 99.35% | Cytotoxicity Test Values Mean OD @ 450/650 nm ([4]; 9.99 μg/ml): 1.113 OD | TOXICITY VALUES (XTT - O.D. @ 450/650 nm), SAMPLE ([4]; 9.99 μg/ml): 1.1959 O.D. and 0.9242 O.D. and 1.2189 O.D. | % Cell Viability ([4]; 31.6 μg/ml): 64.38% | Cytotoxicity Test Values Mean OD @ 450/650 nm ([4]; 31.6 μg/ml): 0.721 OD | TOXICITY VALUES (XTT - O.D. @ 450/650 nm), SAMPLE ([4]; 31.6 μg/ml): 0.6103 O.D. and 0.6005 O.D. and 0.7620 O.D. | % Cell Viability ([4]; 100 μg/ml): 46.94% | Cytotoxicity Test Values Mean OD @ 450/650 nm ([4]; 100 μg/ml): 0.526 OD | TOXICITY VALUES (XTT - O.D. @ 450/650 nm), SAMPLE ([4]; 100 μg/ml): 0.4574 O.D. and 0.5742 O.D. and 0.5461 O.D. | TC 25% ([4]; human PBMCs, XTT): 22.3 µg/mL (≈ 94 µM) | TC50 (TC 50%) ([4]; human PBMCs, XTT): 81.7 µg/mL (≈ 344 µM) | TC 95% ([4]; human PBMCs, XTT): >100 µg/mL | RT Values (cpm), MEAN ([5]; 0.01 μM): 29112.2 cpm | % VC ([5]; 0.01 μM): 98.8% | RT Values (cpm), SAMPLE ([5]; 0.01 μM): 31907 cpm and 25645 cpm and 29785 cpm | RT Values (cpm), MEAN ([5]; 0.03 μM): 29394.5 cpm | % VC ([5]; 0.03 μM): 99.8% | RT Values (cpm), SAMPLE ([5]; 0.03 μM): 28419 cpm and 27673 cpm and 32092 cpm | RT Values (cpm), MEAN ([5]; 0.10 μM): 28793.5 cpm | % VC ([5]; 0.10 μM): 97.8% | RT Values (cpm), SAMPLE ([5]; 0.10 μM): 24503 cpm and 28356 cpm and 33522 cpm | RT Values (cpm), MEAN ([5]; 0.32 μM): 28067.5 cpm | % VC ([5]; 0.32 μM): 95.3% | RT Values (cpm), SAMPLE ([5]; 0.32 μM): 30361 cpm and 24204 cpm and 29638 cpm | RT Values (cpm), MEAN ([5]; 1.00 μM): 19065.5 cpm | % VC ([5]; 1.00 μM): 64.7% | RT Values (cpm), SAMPLE ([5]; 1.00 μM): 18120 cpm and 21373 cpm and 17704 cpm | RT Values (cpm), MEAN ([5]; 3.16 μM): 15141.8 cpm | % VC ([5]; 3.16 μM): 51.4% | RT Values (cpm), SAMPLE ([5]; 3.16 μM): 12447 cpm and 16921 cpm and 16058 cpm | RT Values (cpm), MEAN ([5]; 10.0 μM): 12407.5 cpm | % VC ([5]; 10.0 μM): 42.1% | RT Values (cpm), SAMPLE ([5]; 10.0 μM): 13978 cpm and 10363 cpm and 12882 cpm | RT Values (cpm), MEAN ([5]; 31.6 μM): 9086.8 cpm | % VC ([5]; 31.6 μM): 30.9% | RT Values (cpm), SAMPLE ([5]; 31.6 μM): 10815 cpm and 7472 cpm and 8974 cpm | RT Values (cpm), MEAN ([5]; 100 μM): 2467.8 cpm | % VC ([5]; 100 μM): 8.4% | RT Values (cpm), SAMPLE ([5]; 100 μM): 3062 cpm and 2720 cpm and 1622 cpm | IC 95% ([5]; HIV-1 Ba-L in PBMC): 65.1 µM and >100 µM | ANTIVIRAL INDEX (AI) 95% ([5]; TC/IC at 95%): >1.54
